Measurements published in ChEMBL document CHEMBL4507320, “Data for DCP probe NVS-MALT1” (2021).
The source made the active and inactive calls. The rule behind the calls is not given here.

Tests used:
[1] = molecular target: GABA-A receptor; anion channel (Rattus norvegicus) (UniProt O09028+P15431+P18506+P18508+P19969+P20236+P23574+P23576+P28471+P28473+P30191+P62813+P63079+P63138+Q91ZM7+Q9ES14); conditions: Compound concentration 10.0 uM
[2] = molecular target: Dual specificity protein kinase CLK1 (Homo sapiens) (UniProt P49759); conditions: Compound concentration 1000.0 nM
[3] = molecular target: Myosin light chain kinase family member 4 (Homo sapiens) (UniProt Q86YV6); conditions: Compound concentration 1000.0 nM
[4] = molecular target: Death-associated protein kinase 2 (Homo sapiens) (UniProt Q9UIK4); conditions: Compound concentration 1000.0 nM
[5] = molecular target: Receptor-type tyrosine-protein kinase FLT3 (Homo sapiens, UniProt P36888); conditions: Compound concentration 1000.0 nM
[6] = molecular target: Cyclin-dependent kinase 19 (Homo sapiens) (UniProt Q9BWU1); conditions: Compound concentration 1000.0 nM
[7] = molecular target: SRSF protein kinase 1 (Homo sapiens) (UniProt Q96SB4); conditions: Compound concentration 1000.0 nM
[8] = molecular target: Glycogen synthase kinase-3 alpha (Homo sapiens) (UniProt P49840); conditions: Compound concentration 1000.0 nM
[9] = molecular target: Epidermal growth factor receptor (Homo sapiens) (UniProt P00533); conditions: Compound concentration 1000.0 nM
[10] = molecular target: Serine/threonine-protein kinase TAO2 (Homo sapiens) (UniProt Q9UL54); conditions: Compound concentration 1000.0 nM
[11] = test system: Tyrosine-protein kinase ABL1 (Homo sapiens), P00519 [Q252H]; conditions: Compound concentration 1000.0 nM
[12] = molecular target: Activin receptor type-1B (Homo sapiens) (UniProt P36896); conditions: Compound concentration 1000.0 nM
[13] = molecular target: Casein kinase I isoform gamma-3 (Homo sapiens) (UniProt Q9Y6M4); conditions: Compound concentration 1000.0 nM
[14] = molecular target: Dual specificity tyrosine-phosphorylation-regulated kinase 1B (Homo sapiens) (UniProt Q9Y463); conditions: Compound concentration 1000.0 nM
[15] = molecular target: Protein kinase C theta type (Homo sapiens) (UniProt Q04759); conditions: Compound concentration 1000.0 nM
[16] = molecular target: Insulin receptor-related protein (Homo sapiens) (UniProt P14616); conditions: Compound concentration 1000.0 nM
[17] = test system: Mast/stem cell growth factor receptor Kit (Homo sapiens), P10721 [V559D,T670I]; conditions: Compound concentration 1000.0 nM
[18] = molecular target: Mitogen-activated protein kinase kinase kinase kinase 5 (Homo sapiens) (UniProt Q9Y4K4); conditions: Compound concentration 1000.0 nM
[19] = molecular target: Rho-associated protein kinase 2 (Homo sapiens) (UniProt O75116); conditions: Compound concentration 1000.0 nM
[20] = molecular target: Insulin receptor (Homo sapiens) (UniProt P06213); conditions: Compound concentration 1000.0 nM
[21] = molecular target: Phosphatidylinositol 4,5-bisphosphate 3-kinase catalytic subunit beta isoform (Homo sapiens) (UniProt P42338); conditions: Compound concentration 1000.0 nM
[22] = molecular target: D(3) dopamine receptor (Homo sapiens) (UniProt P35462); conditions: Compound concentration 10.0 uM
[23] = molecular target: Serine/threonine-protein kinase N1 (Homo sapiens) (UniProt Q16512); conditions: Compound concentration 1000.0 nM
[24] = molecular target: SNF-related serine/threonine-protein kinase (Homo sapiens) (UniProt Q9NRH2); conditions: Compound concentration 1000.0 nM
[25] = molecular target: T1, Mucosa-associated lymphoid tissue lymphoma translocation protein 1 (Homo sapiens, UniProt Q9UDY8); test: Human biochemical (TR-FRET) assay (high salt)
T1 sequence (Q9UDY8 whole entry): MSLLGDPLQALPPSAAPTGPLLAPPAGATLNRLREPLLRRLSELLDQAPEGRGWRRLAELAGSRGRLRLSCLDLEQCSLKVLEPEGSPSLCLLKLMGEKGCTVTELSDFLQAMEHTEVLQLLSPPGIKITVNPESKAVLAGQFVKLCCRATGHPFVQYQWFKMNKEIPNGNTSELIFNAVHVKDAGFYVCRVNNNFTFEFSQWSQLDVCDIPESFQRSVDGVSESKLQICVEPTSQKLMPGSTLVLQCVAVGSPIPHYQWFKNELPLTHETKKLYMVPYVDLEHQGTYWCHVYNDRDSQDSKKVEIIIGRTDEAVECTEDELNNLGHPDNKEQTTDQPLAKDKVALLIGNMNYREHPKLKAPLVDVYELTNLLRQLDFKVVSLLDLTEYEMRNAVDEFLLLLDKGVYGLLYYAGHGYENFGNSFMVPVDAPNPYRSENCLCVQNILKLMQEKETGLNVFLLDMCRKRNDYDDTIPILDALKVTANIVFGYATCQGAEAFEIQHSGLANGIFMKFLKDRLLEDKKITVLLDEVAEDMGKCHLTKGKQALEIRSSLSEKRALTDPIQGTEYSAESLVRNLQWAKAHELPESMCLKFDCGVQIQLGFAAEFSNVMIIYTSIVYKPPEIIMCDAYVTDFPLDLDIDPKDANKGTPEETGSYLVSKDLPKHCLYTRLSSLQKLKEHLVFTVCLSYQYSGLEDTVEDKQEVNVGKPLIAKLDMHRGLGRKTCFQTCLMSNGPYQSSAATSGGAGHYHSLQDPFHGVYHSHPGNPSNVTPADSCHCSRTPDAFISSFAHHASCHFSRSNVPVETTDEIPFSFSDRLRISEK

[26] = molecular target: Dual specificity mitogen-activated protein kinase kinase 3 (Homo sapiens) (UniProt P46734); conditions: Compound concentration 1000.0 nM
[27] = molecular target: Proto-oncogene tyrosine-protein kinase receptor Ret (Homo sapiens) (UniProt P07949); conditions: Compound concentration 1000.0 nM
[28] = molecular target: Tyrosine-protein kinase JAK3 (Homo sapiens) (UniProt P52333); conditions: Compound concentration 1000.0 nM
[29] = test system: Tyrosine-protein kinase ABL1 (Homo sapiens), P00519 [F317I]; conditions: Compound concentration 1000.0 nM
[30] = molecular target: Transient receptor potential cation channel subfamily M member 6 (Homo sapiens) (UniProt Q9BX84); conditions: Compound concentration 1000.0 nM
[31] = test system: Receptor-type tyrosine-protein kinase FLT3 (Homo sapiens), P36888 [D835Y]; conditions: Compound concentration 1000.0 nM
[32] = molecular target: Aurora kinase A (Homo sapiens) (UniProt O14965); conditions: Compound concentration 1000.0 nM
[33] = test system: ALK tyrosine kinase receptor (Homo sapiens), Q9UM73 [C1156Y]; conditions: Compound concentration 1000.0 nM

Chain of Dual specificity tyrosine-phosphorylation-regulated kinase 1B (Homo sapiens) (Q9Y463 whole entry, looked up): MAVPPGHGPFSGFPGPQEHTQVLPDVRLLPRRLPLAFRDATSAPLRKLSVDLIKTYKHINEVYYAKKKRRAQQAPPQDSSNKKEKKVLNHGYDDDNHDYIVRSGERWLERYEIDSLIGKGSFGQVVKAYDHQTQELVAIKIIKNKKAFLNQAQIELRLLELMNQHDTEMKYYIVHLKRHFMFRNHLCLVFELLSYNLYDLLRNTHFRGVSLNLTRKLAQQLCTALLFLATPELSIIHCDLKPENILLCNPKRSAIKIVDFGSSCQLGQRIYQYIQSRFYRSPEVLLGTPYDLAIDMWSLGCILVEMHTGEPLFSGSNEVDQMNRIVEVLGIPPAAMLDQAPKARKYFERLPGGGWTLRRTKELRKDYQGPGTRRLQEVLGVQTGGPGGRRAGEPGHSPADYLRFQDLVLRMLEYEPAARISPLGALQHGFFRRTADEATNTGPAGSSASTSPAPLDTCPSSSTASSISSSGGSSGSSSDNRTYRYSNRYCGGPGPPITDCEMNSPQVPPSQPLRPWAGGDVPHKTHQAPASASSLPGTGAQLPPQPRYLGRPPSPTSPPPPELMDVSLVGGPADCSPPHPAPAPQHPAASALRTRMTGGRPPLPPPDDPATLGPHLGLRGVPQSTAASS
Chain of Serine/threonine-protein kinase TAO2 (Homo sapiens) (Q9UL54 whole entry): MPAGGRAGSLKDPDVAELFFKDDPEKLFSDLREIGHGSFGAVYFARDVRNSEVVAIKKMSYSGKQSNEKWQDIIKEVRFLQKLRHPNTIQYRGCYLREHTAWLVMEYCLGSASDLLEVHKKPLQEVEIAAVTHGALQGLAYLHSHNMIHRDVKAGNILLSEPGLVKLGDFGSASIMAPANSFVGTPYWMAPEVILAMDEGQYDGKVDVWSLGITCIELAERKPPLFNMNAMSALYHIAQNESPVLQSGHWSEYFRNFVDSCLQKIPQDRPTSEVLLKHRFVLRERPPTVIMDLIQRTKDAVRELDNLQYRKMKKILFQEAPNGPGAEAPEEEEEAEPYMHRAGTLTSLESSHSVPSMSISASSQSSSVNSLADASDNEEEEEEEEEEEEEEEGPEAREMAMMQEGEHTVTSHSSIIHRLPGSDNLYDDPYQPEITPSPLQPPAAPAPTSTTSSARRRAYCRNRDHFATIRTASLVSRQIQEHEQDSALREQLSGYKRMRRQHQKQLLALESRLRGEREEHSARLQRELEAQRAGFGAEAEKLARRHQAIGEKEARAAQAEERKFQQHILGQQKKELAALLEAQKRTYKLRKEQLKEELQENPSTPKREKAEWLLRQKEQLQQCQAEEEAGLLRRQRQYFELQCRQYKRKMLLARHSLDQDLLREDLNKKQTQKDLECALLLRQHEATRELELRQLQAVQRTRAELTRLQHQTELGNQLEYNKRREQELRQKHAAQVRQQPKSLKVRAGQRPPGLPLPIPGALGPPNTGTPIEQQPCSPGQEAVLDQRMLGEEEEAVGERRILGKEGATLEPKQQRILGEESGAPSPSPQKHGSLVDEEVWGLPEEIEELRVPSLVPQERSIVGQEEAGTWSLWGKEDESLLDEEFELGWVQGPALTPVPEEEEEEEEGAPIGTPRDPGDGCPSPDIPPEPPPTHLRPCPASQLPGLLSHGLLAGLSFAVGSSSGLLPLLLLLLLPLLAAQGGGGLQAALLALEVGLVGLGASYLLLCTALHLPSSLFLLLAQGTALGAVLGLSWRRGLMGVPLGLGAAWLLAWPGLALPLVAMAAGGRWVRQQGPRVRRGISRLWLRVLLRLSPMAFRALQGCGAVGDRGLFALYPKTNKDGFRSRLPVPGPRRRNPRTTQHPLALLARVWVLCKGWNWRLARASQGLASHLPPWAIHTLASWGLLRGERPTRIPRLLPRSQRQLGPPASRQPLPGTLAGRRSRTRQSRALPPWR
Chain of Rho-associated protein kinase 2 (Homo sapiens) (O75116 whole entry, looked up): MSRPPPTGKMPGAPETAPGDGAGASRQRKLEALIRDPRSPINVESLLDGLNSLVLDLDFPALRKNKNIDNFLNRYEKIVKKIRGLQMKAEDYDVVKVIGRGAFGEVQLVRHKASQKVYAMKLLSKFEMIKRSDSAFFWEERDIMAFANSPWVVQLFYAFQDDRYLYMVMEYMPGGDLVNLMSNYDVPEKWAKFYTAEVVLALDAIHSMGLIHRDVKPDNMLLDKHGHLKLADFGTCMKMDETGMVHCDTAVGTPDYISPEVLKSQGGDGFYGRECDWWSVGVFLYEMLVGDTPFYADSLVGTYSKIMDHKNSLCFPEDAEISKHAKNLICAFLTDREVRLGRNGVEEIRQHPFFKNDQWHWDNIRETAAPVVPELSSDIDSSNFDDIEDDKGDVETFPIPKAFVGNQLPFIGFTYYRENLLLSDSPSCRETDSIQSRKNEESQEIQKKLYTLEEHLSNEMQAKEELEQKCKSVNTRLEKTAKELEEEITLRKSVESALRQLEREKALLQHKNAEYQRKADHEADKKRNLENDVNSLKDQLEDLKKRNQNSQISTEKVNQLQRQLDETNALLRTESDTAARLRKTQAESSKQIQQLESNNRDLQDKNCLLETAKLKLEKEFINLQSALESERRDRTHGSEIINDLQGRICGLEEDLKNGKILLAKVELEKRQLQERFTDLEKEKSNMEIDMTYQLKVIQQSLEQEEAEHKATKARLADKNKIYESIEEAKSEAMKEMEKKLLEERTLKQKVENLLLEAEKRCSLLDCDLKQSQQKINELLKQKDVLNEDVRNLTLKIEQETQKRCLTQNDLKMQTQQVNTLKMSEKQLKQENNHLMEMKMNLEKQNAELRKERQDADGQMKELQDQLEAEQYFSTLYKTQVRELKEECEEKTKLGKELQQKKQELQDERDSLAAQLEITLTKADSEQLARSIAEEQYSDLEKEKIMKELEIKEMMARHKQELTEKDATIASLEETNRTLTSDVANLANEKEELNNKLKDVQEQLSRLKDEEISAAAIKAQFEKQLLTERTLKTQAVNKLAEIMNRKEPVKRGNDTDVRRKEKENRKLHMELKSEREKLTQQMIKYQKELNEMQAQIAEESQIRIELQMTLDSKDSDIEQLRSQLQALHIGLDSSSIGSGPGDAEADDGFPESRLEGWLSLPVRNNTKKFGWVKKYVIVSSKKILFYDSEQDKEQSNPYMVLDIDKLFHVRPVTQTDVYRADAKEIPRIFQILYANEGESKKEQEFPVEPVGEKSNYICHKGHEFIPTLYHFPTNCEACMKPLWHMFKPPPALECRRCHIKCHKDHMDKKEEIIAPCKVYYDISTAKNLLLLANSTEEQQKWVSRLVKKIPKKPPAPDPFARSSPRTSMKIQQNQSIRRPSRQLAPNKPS
Chain of Myosin light chain kinase family member 4 (Homo sapiens) (Q86YV6 whole entry): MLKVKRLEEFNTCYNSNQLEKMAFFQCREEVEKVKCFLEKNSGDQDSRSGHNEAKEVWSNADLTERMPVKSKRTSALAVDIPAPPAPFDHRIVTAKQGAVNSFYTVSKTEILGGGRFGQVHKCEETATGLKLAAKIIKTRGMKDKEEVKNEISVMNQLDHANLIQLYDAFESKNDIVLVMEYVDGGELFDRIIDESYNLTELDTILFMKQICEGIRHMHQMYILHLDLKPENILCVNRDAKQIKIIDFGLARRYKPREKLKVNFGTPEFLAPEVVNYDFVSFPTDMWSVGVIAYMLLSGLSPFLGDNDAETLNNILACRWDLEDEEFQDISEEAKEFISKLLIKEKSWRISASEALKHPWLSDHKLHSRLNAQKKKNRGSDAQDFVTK
Chain of Mitogen-activated protein kinase kinase kinase kinase 5 (Homo sapiens) (Q9Y4K4 whole entry, looked up): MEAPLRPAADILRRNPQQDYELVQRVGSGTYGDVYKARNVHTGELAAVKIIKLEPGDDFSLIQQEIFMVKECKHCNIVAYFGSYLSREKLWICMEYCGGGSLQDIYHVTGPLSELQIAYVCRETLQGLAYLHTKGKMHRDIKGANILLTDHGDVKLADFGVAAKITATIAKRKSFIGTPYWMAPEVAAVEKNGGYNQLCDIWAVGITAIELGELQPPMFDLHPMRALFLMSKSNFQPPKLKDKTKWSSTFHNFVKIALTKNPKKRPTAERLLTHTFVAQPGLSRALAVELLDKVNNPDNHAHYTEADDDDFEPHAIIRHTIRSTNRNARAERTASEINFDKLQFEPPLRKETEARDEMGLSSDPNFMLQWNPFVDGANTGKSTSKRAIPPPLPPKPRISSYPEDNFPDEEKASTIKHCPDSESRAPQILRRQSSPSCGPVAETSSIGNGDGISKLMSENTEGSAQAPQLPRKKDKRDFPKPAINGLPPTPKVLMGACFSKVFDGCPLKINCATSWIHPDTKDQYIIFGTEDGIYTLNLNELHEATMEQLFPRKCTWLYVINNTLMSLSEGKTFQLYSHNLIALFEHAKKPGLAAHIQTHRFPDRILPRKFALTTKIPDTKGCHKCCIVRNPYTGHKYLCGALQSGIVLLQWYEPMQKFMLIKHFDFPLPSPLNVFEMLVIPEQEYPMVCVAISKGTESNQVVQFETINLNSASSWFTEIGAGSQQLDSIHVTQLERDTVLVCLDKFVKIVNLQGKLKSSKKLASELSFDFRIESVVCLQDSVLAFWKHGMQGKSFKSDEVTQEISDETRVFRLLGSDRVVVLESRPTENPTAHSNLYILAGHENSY
Chain of Death-associated protein kinase 2 (Homo sapiens) (Q9UIK4 whole entry, looked up): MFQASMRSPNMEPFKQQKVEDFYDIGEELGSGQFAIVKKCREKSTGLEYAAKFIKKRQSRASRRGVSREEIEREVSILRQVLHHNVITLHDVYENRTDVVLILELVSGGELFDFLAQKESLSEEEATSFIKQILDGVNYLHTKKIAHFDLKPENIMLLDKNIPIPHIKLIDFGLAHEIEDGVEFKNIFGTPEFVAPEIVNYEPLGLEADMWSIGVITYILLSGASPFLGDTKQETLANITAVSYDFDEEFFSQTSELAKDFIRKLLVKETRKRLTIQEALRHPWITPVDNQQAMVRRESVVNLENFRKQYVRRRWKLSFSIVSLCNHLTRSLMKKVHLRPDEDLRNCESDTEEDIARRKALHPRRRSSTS

| SMILES | inhibition [1] [%] | residual activity [2] [%] | residual activity [3] [%] | residual activity [4] [%] | residual activity [5] [%] | residual activity [6] [%] | residual activity [7] [%] | residual activity [8] [%] | residual activity [9] [%] | residual activity [10] [%] | residual activity [11] [%] | residual activity [12] [%] | residual activity [13] [%] | residual activity [14] [%] | residual activity [15] [%] | residual activity [16] [%] | residual activity [17] [%] | residual activity [18] [%] | residual activity [19] [%] | residual activity [20] [%] | other results |
| --- | --- | --- | --- | --- | --- | --- | --- | --- | --- | --- | --- | --- | --- | --- | --- | --- | --- | --- | --- | --- | --- |
| CO[C@@H](C)c1c(Nc2ccc([C@@H](N(C)C(=O)C3CCS(=O)(=O)CC3)C(F)(F)F)cc2)cnc2cc(Cl)nn12 [NVS-MALT1-C] | 19.2 | 82 | 83 | 41 | 64 | 81 | 95 | 94 | 95 | 94 | 100 | 100 | 71 | 75 | 98 | 89 | 82 | 100 | 100 | 95 | residual activity [21]: 72%; inhibition [22]: -5.92%; residual activity [23]: 99%; residual activity [24]: 100%; IC50 [25]: 190 nM (active); residual activity [26]: 90%; residual activity [27]: 91%; residual activity [28]: 98%; residual activity [29]: 100%; residual activity [30]: 100%; residual activity [31]: 42%; residual activity [32]: 100%; residual activity [33]: 79% |
| CO[C@@H](C)c1c(Nc2ccc([C@H](N(C)C(=O)C3CCS(=O)(=O)CC3)C(F)(F)F)cc2)cnc2cc(Cl)nn12 [NVS-MALT1] | 27.9 | 81 | 86 | 86 | 68 | 73 | 96 | 86 | 93 | 88 | 100 | 72 | 72 | 78 | 93 | 94 | 86 | 88 | 100 | 87 | residual activity [21]: 65%; inhibition [22]: -4.43%; residual activity [23]: 100%; residual activity [24]: 100%; IC50 [25]: 2.4 nM (active); residual activity [26]: 93%; residual activity [27]: 91%; residual activity [28]: 99%; residual activity [29]: 100%; residual activity [30]: 100%; residual activity [31]: 59%; residual activity [32]: 100%; residual activity [33]: 89% |
